From patent US10858356B2, “Pyrazolopyridine derivative having GLP-1 receptor agonist effect” (Chugai Seiyaku Kabushiki Kaisha, priority 2016, dated 2020) come the findings set out here.

Molecules are shown by their SMILES.

In the test the target is human GLP1R (Homo sapiens (Human), UniProt P43220). Description: In vitro cAMP signal activation in human GLP1R stably-expressing cell line (hGLP1R-HEK293). It is filed as cell-based. The settings on record: cAMP concentration in hGLP1R-HEK293; 100% = 1 nM human GLP-1 (7-37).
Chain of human GLP1R (P43220 24-463): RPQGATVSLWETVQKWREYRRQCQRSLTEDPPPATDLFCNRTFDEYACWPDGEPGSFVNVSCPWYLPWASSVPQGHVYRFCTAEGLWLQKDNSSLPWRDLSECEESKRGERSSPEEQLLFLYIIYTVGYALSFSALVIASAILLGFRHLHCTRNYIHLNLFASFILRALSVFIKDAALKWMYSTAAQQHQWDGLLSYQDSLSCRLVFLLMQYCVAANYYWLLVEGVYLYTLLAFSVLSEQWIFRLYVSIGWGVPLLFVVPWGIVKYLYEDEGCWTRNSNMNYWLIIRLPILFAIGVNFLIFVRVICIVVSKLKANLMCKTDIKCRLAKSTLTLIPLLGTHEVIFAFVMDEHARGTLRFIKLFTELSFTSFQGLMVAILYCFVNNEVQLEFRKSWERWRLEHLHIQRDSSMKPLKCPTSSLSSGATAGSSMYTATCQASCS

Usually EC50 stands for the concentration at which the effect is half-maximal. In the case of `CCS(=O)(=O)c1ccc(-n2ccn(-c3c4c(nn3-c3cc(C)c(F)c(C)c3)CCN(C(=O)c3cc5cc(C6CCOCC6)ccc5n3[C@@]3(c5noc(=O)[nH]5)CC3C)[C@H]4C)c2=O)cc1` (stereo in doubt) [Example 21, 3-[(1S,2S)-1-[2-[(4S)-3-[3-(4-ethylsulfonylphenyl)-2-oxoimidazol-1-yl]-2-(4-fluoro-3,5-dimethylphenyl)-4-methyl-6,7-dihydro-4H-pyrazolo[4,3-c]pyridine-5-carbonyl]-5-(oxan-4-yl)indol-1-yl]-2-methylcyclopropyl]-4H-1,2,4-oxadiazol-5-one], the EC50 was 1.6 nM.
As for `COCCn1ncc2cc(-n3ccn(-c4c5c(nn4-c4cc(C)c(F)c(C)c4)CCN(C(=O)c4cc6cc(N7CCOC(C)(C)C7)ccc6n4[C@@]4(c6noc(=O)[nH]6)C[C@@H]4C)C5)c3=O)ccc21` [Example 7, 3-[(1S,2S)-1-[5-(2,2-dimethylmorpholin-4-yl)-2-[2-(4-fluoro-3,5-dimethylphenyl)-3-[3-[1-(2-methoxyethyl)indazol-5-yl]-2-oxoimidazol-1-yl]-6,7-dihydro-4H-pyrazolo[4,3-c]pyridine-5-carbonyl]indol-1-yl]-2-methylcyclopropyl]-4H-1,2,4-oxadiazol-5-one], the figure is 3.2 nM.
The result for `Cc1cc(-n2nc3c(c2-n2ccn(-c4ccc5c(cnn5C)c4Cl)c2=O)[C@H](C)N(C(=O)c2cc4cc([C@H]5CCOC(C)(C)C5)ccc4n2[C@@]2(c4noc(=O)[nH]4)C[C@@H]2C)CC3)cc(C)c1F` [compound 68, 3-[(1S,2S)-1-[2-[(4S)-3-[3-(4-chloro-1-methylindazol-5-yl)-2-oxoimidazol-1-yl]-2-(4-fluoro-3,5-dimethylphenyl)-4-methyl-6,7-dihydro-4H-pyrazolo[4,3-c]pyridine-5-carbonyl]-5-[(4S)-2,2-dimethyloxan-4-yl]indol-1-yl]-2-methylcyclopropyl]-4H-1,2,4-oxadiazol-5-one] reads 1.8 nM.
For the molecule `COCCn1ncc2cc(-n3ccn(-c4c5c(nn4-c4cc(C)c(F)c(C)c4)CCN(C(=O)c4cc6cc([C@H]7CCOC(C)(C)C7)ccc6n4[C@@]4(c6noc(=O)[nH]6)C[C@@H]4C)[C@H]5C)c3=O)ccc21` [Example 31, 3-[(1S,2S)-1-[5-[(4S)-2,2-dimethyloxan-4-yl]-2-[(4S)-2-(4-fluoro-3,5-dimethylphenyl)-3-[3-[1-(2-methoxyethyl)indazol-5-yl]-2-oxoimidazol-1-yl]-4-methyl-6,7-dihydro-4H-pyrazolo[4,3-c]pyridine-5-carbonyl]indol-1-yl]-2-methylcyclopropyl]-4H-1,2,4-oxadiazol-5-one], the EC50 is 0.74 nM.
As for `Cc1cc(-n2nc3c(c2-n2ccn(-c4cc5cnn(C)c5cc4F)c2=O)[C@H](C)N(C(=O)c2cc4cc(C5CCOCC5)ccc4n2[C@@]2(c4noc(=O)[nH]4)C[C@@H]2C)CC3)cc(C)c1F` [Example 27, 3-[(1S,2S)-1-[2-[(4S)-2-(4-fluoro-3,5-dimethylphenyl)-3-[3-(6-fluoro-1-methylindazol-5-yl)-2-oxoimidazol-1-yl]-4-methyl-6,7-dihydro-4H-pyrazolo[4,3-c]pyridine-5-carbonyl]-5-(oxan-4-yl)indol-1-yl]-2-methylcyclopropyl]-4H-1,2,4-oxadiazol-5-one], the figure is 2.3 nM; as for `COCCn1c(=O)n(C)c2cc(-n3ccn(-c4c5c(nn4-c4cc(C)c(F)c(C)c4)CCN(C(=O)c4cc6cc(C7CCOC(C)(C)C7)ccc6n4[C@@]4(c6noc(=O)[nH]6)C[C@@H]4C)[C@H]5C)c3=O)ccc21` (stereo in doubt) [Example 33, 3-[(1S,2S)-1-[5-[(4S)-2,2-dimethyloxan-4-yl]-2-[(4S)-2-(4-fluoro-3,5-dimethylphenyl)-3-[3-[1-(2-methoxyethyl)-3-methyl-2-oxobenzoimidazol-5-yl]-2-oxoimidazol-1-yl]-4-methyl-6,7-dihydro-4H-pyrazolo[4,3-c]pyridine-5-carbonyl]indol-1-yl]-2-methylcyclopropyl]-4H-1,2,4-oxadiazol-5-one], 1.6 nM; as for `Cc1cc(-n2nc3c(c2-n2ccn(-c4ccc5c(cnn5[C@H]5CCOC5)c4)c2=O)[C@H](C)N(C(=O)c2cc4cc(-c5ccnc(C)c5F)ccc4n2[C@@]2(c4noc(=O)[nH]4)C[C@@H]2C)CC3)cc(C)c1F` [Example 14, 3-[(1S,2S)-1-[2-[(4S)-2-(4-fluoro-3,5-dimethylphenyl)-4-methyl-3-[2-oxo-3-[1-[(3S)-oxolan-3-yl]indazol-5-yl]imidazol-1-yl]-6,7-dihydro-4H-pyrazolo[4,3-c]pyridine-5-carbonyl]-5-(3-fluoro-2-methylpyridin-4-yl)indol-1-yl]-2-methylcyclopropyl]-4H-1,2,4-oxadiazol-5-one], 2.3 nM.
The result for `COCCn1ncc2cc(-n3ccn(-c4c5c(nn4-c4ccc(F)c(C)c4)CCN(C(=O)c4cc6cc(N7CCOC(C)(C)C7)ccc6n4[C@@]4(c6noc(=O)[nH]6)C[C@@H]4C)C5)c3=O)ccc21` [compound 58, 3-[(1S,2S)-1-[5-(2,2-dimethylmorpholin-4-yl)-2-[2-(4-fluoro-3-methylphenyl)-3-[3-[1-(2-methoxyethyl)indazol-5-yl]-2-oxoimidazol-1-yl]-6,7-dihydro-4H-pyrazolo[4,3-c]pyridine-5-carbonyl]indol-1-yl]-2-methylcyclopropyl]-4H-1,2,4-oxadiazol-5-one] reads 7.6 nM; that for `Cc1cc(-n2nc3c(c2-n2ccn(-c4ccc5c(cnn5C)c4)c2=O)CN(C(=O)c2cc4cc(N5CCOC6(CC6)C5)ccc4n2[C@@]2(c4noc(=O)[nH]4)C[C@@H]2C)CC3)cc(C)c1F` [compound 52], 6.7 nM; that for `COCCn1ncc2cc(-n3ccn(-c4c5c(nn4-c4cc(C)c(F)c(C)c4)CCN(C(=O)c4cc6cc(C7CCOCC7)cnc6n4[C@@]4(c6noc(=O)[nH]6)C[C@@H]4C)C5)c3=O)ccc21` [compound 56, 3-[(1S,2S)-1-[2-[2-(4-fluoro-3,5-dimethylphenyl)-3-[3-[1-(2-methoxyethyl)indazol-5-yl]-2-oxoimidazol-1-yl]-6,7-dihydro-4H-pyrazolo[4,3-c]pyridine-5-carbonyl]-5-(oxan-4-yl)pyrrolo[2,3-b]pyridin-1-yl]-2-methylcyclopropyl]-4H-1,2,4-oxadiazol-5-one], 3.4 nM.
As for `Cc1cc(-n2nc3c(c2-n2ccn(-c4ccc5c(cnn5C)c4)c2=O)CN(C(=O)c2cc4cc(C5CCOCC5)ccc4n2[C@@]2(c4noc(=O)[nH]4)C[C@@H]2C)CC3)cc(C)c1Cl` [compound 55, 3-[(1S,2S)-1-[2-[2-(4-chloro-3,5-dimethylphenyl)-3-[3-(1-methylindazol-5-yl)-2-oxoimidazol-1-yl]-6,7-dihydro-4H-pyrazolo[4,3-c]pyridine-5-carbonyl]-5-(oxan-4-yl)indol-1-yl]-2-methylcyclopropyl]-4H-1,2,4-oxadiazol-5-one], the figure is 3.7 nM.
On to `Cc1cc(-n2nc3c(c2-n2ccn(-c4ccc5[nH]ncc5c4)c2=O)[C@H](C)N(C(=O)c2cc4cc(C5CCOC(C)(C)C5)ccc4n2[C@@]2(c4noc(=O)[nH]4)C[C@@H]2C)CC3)cc(C)c1F` (stereo in doubt) [Example 34, 3-[(1S,2S)-1-[5-[(4S)-2,2-dimethyloxan-4-yl]-2-[(4S)-2-(4-fluoro-3,5-dimethylphenyl)-3-[3-(1H-indazol-5-yl)-2-oxoimidazol-1-yl]-4-methyl-6,7-dihydro-4H-pyrazolo[4,3-c]pyridine-5-carbonyl]indol-1-yl]-2-methylcyclopropyl]-4H-1,2,4-oxadiazol-5-one], for which the EC50 amounted to 3 nM.
As for `Cc1cc(C)cc(-n2nc3c(c2-n2ccn(-c4ccc5c(cnn5C)c4)c2=O)CN(C(=O)c2cc4cc(C5CCOC(C)(C)C5)ccc4n2[C@@]2(c4noc(=O)[nH]4)C[C@@H]2C)CC3)c1` (some centres unmarked) [compound 60], the figure is 4.9 nM; as for `COCCn1ncc2c(F)c(-n3ccn(-c4c5c(nn4-c4ccc(F)c(C)c4)CCN(C(=O)c4cc6cc(C7CCOCC7)ccc6n4[C@@]4(c6noc(=O)[nH]6)C[C@@H]4C)[C@H]5C)c3=O)ccc21` [Example 47, 3-[(1S,2S)-1-[2-[(4S)-3-[3-[4-fluoro-1-(2-methoxyethyl)indazol-5-yl]-2-oxoimidazol-1-yl]-2-(4-fluoro-3-methylphenyl)-4-methyl-6,7-dihydro-4H-pyrazolo[4,3-c]pyridine-5-carbonyl]-5-(oxan-4-yl)indol-1-yl]-2-methylcyclopropyl]-4H-1,2,4-oxadiazol-5-one], 2 nM.
The result for `Cc1cc(-n2nc3c(c2-n2ccn(-c4ccc5c(cnn5C)c4)c2=O)CN(C(=O)c2cc4cc(C5CCOCC5)ccc4n2[C@@]2(c4noc(=O)[nH]4)C[C@@H]2CO)CC3)cc(C)c1F` [compound 79, 3-[(1S,2S)-1-[2-[2-(4-fluoro-3,5-dimethylphenyl)-3-[3-(1-methylindazol-5-yl)-2-oxoimidazol-1-yl]-6,7-dihydro-4H-pyrazolo[4,3-c]pyridine-5-carbonyl]-5-(oxan-4-yl)indol-1-yl]-2-(hydroxymethyl)cyclopropyl]-4H-1,2,4-oxadiazol-5-one] reads 2.4 nM; that for `Cc1cc(-n2nc3c(c2-n2ccn(-c4ccc5c(cnn5CC(F)(F)F)c4F)c2=O)[C@H](C)N(C(=O)c2cc4cc([C@H]5CCOC(C)(C)C5)ccc4n2[C@@]2(c4noc(=O)[nH]4)C[C@@H]2C)CC3)cc(C)c1F` [Example 35, 3-[(1S,2S)-1-[5-[(4S)-2,2-dimethyloxan-4-yl]-2-[(4S)-2-(4-fluoro-3,5-dimethylphenyl)-3-[3-[4-fluoro-1-(2,2,2-trifluoroethyl)indazol-5-yl]-2-oxoimidazol-1-yl]-4-methyl-6,7-dihydro-4H-pyrazolo[4,3-c]pyridine-5-carbonyl]indol-1-yl]-2-methylcyclopropyl]-4H-1,2,4-oxadiazol-5-one], 3.2 nM.
As to `COCCn1ncc2cc(-n3ccn(-c4c5c(nn4-c4cc(C)c(F)c(C)c4)CCN(C(=O)c4cc6cc([C@H]7CCO[C@@H](C)C7)ccc6n4[C@@]4(c6noc(=O)[nH]6)C[C@@H]4C)[C@H]5C)c3=O)ccc21` [compound 62, 3-[(1S,2S)-1-[2-[(4S)-2-(4-fluoro-3,5-dimethylphenyl)-3-[3-[1-(2-methoxyethyl)indazol-5-yl]-2-oxoimidazol-1-yl]-4-methyl-6,7-dihydro-4H-pyrazolo[4,3-c]pyridine-5-carbonyl]-5-[(2S,4S)-2-methyloxan-4-yl]indol-1-yl]-2-methylcyclopropyl]-4H-1,2,4-oxadiazol-5-one], the EC50 is 1.1 nM.
